The values that follow are results of earlier work, collected in patent publication US9949922B2, “Silica hydrogel composite” (DELSITECH OY, priority 2013, dated 2018).

The conditions of this series: nimodipine value from DrugBank.

Turning to `O=C1OC2(c3ccc(O)cc3Oc3cc(O)ccc32)c2ccccc21` [Fluorescein], the Water solubility was 0.8 mg/mL.
